Experimental findings from US5110816A, “3-[2-(4-arylpiperazin-1-yl)ethoxy]-p-cymene, the method of preparing and composition thereof” (Institut de Recherches Chimiques et Biologiques Appliquees …, priority 1988, dated 1992) are described below.

Structures can show the parent of a compound that is named as a salt. Bounds are passed on as bounds.

Test system in the first data set: not listed separately
Description: Acute toxicity in mice, single oral dose. The note with it: mouse, in vivo, p.o., 14-day observation. As for the experimental part:
The products were administered orally to mice in a single dose. After a 14-day observation period, the mortality was recorded.
The results are expressed in the form of the 50% lethal dose (LD50) in mg.kg^-1.
With `Cc1ccc(C(C)C)c(OCCN2CCN(c3ccc(Cl)cc3)CC2)c1` [B.1191, 3-[2-(4-p-chlorophenylpiperazin-1-yl)ethoxy]-p-cymene dihydrochloride], the median lethal dose (LD50) at 336 h was > 1000 mg/kg.

For `CCOc1cccc(N2CCN(CCOc3cc(C)ccc3C(C)C)CC2)c1` [B.1204, 3-[2-(4-m-ethoxyphenylpiperazin-1-yl)ethoxy]-p-cymene hydrochlroide], the LD50 at 336 h was > 1000 mg/kg.

Consider `COc1cccc(N2CCN(CCOc3cc(C)ccc3C(C)C)CC2)c1` [B.1206, 3-[2-(4-m-methoxyphenylpiperazin-1-yl)ethoxy]-p-cymene hydrochloride], for which the median lethal dose (LD50) at 336 h was > 1000 mg/kg.

As to `Cc1ccc(C(C)C)c(OCCN2CCN(c3ccccc3C)CC2)c1` [B.1213, 3-[2-(4-o-methylphenylpiperazin-1-yl)-ethoxy]-p-cymene hydrochloride], the median lethal dose (LD50) at 336 h is > 1000 mg/kg.

With `Cc1ccc(C(C)C)c(OCCN2CCN(c3cc(Cl)ccc3C)CC2)c1` [B.1256], the 50% lethal dose (LD50) at 336 h is > 1000 mg/kg.

Turning to `Cc1ccc(C(C)C)c(OCCN2CCN(c3ccccc3F)CC2)c1` [B.1261, 3-[2-(4-o-fluorophenylpiperazin-1-yl)ethoxy]-p-cymene hydrochloride], the LD50 at 336 h is > 1000 mg/kg.

As for `Cc1ccc(C(C)C)c(OCCN2CCN(c3c(C)cccc3Cl)CC2)c1` [B.1326], the LD50 at 336 h was > 1000 mg/kg.

As to `CCCCOc1ccccc1N1CCN(CCOc2cc(C)ccc2C(C)C)CC1` [B.1340], the median lethal dose (LD50) at 336 h was > 1000 mg/kg.

Take `Cc1ccc(C(C)C)c(OCCN2CCN(c3cccc(O)c3)CC2)c1` [B.1343]: the median lethal dose (LD50) at 336 h is > 1000 mg/kg.

On to `Cc1ccc(N2CCN(CCOc3cc(C)ccc3C(C)C)CC2)c(Cl)c1` [B.1353], for which the median lethal dose (LD50) at 336 h is > 1000 mg/kg.

Take `CCCCCOc1ccccc1N1CCN(CCOc2cc(C)ccc2C(C)C)CC1` [B.1356]: the LD50 at 336 h is > 1000 mg/kg.

As to `COc1ccc(OC)c(N2CCN(CCOc3cc(C)ccc3C(C)C)CC2)c1` [B.1387], the LD50 at 336 h was > 1000 mg/kg.

Regarding `Cc1ccc(C(C)C)c(OCCN2CCN(c3c(C)cccc3C)CC2)c1` [B.1393], the LD50 at 336 h was > 1000 mg/kg.

Another data set relates to toxicity of norepinephrine. Description: Adrenolytic activity in vivo in rats (protection against norepinephrine lethality). The note with it: Rattus norvegicus, oral 30 minutes before i.v. norepinephrine 0.4 mg.kg^-1, dose protecting 50 percent of animals. As for the experimental part:
4. Determination of the Adrenolytic Activity "In Vivo" in Rats
The intravenous injection of norepinephrine (0.4 mg.kg^-1) in wake rats causes the death of 100 percent of the animals. The prior administration of a substance with an alpha-blocking property makes it possible to reduce this toxicity.
The products claimed were administered orally 30 minutes before the intravenous injection of norepinephrine.
These are expressed in the form of the 50% effective dose (ED50), i.e. the dose, in mg.kg^-1, which protects 50 percent of the animals.
With `Cc1ccc(C(C)C)c(OCCN2CCN(c3ccc(Cl)cc3)CC2)c1` [B.1191, 3-[2-(4-p-chlorophenylpiperazin-1-yl)ethoxy]-p-cymene dihydrochloride], the 50% effective dose (ED50) is > 100 mg/kg.

`CCOc1cccc(N2CCN(CCOc3cc(C)ccc3C(C)C)CC2)c1` [B.1204, 3-[2-(4-m-ethoxyphenylpiperazin-1-yl)ethoxy]-p-cymene hydrochlroide]: the 50% effect level (ED50) was put at a dose of 56 mg/kg.

Molecule `COc1cccc(N2CCN(CCOc3cc(C)ccc3C(C)C)CC2)c1` [B.1206, 3-[2-(4-m-methoxyphenylpiperazin-1-yl)ethoxy]-p-cymene hydrochloride] had a median effective dose (ED50) of 100 mg/kg.

Turning to `Cc1ccc(C(C)C)c(OCCN2CCN(c3ccccc3C)CC2)c1` [B.1213, 3-[2-(4-o-methylphenylpiperazin-1-yl)-ethoxy]-p-cymene hydrochloride], it took a dose of 15 mg/kg to reach the 50% effect level (ED50).

Take `Cc1ccc(C(C)C)c(OCCN2CCN(c3cc(Cl)ccc3C)CC2)c1` [B.1256]: it took a dose of 121 mg/kg to reach the 50% effect level (ED50).

In the case of `Cc1ccc(C(C)C)c(OCCN2CCN(c3ccccc3F)CC2)c1` [B.1261, 3-[2-(4-o-fluorophenylpiperazin-1-yl)ethoxy]-p-cymene hydrochloride], it took a dose of 20 mg/kg to reach the 50% effect level (ED50).

As for `Cc1ccc(C(C)C)c(OCCN2CCN(c3c(C)cccc3Cl)CC2)c1` [B.1326], the ED50 was > 200 mg/kg.

Regarding `CCCCOc1ccccc1N1CCN(CCOc2cc(C)ccc2C(C)C)CC1` [B.1340], it took a dose of 11.3 mg/kg to reach the 50% effect level (ED50).

On to `Cc1ccc(C(C)C)c(OCCN2CCN(c3cccc(O)c3)CC2)c1` [B.1343], for which the ED50 was 142 mg/kg.

`Cc1ccc(N2CCN(CCOc3cc(C)ccc3C(C)C)CC2)c(Cl)c1` [B.1353] displayed an ED50 of 30.9 mg/kg.

The molecule `CCCCCOc1ccccc1N1CCN(CCOc2cc(C)ccc2C(C)C)CC1` [B.1356] registered an ED50 of 31.1 mg/kg.

`COc1ccc(OC)c(N2CCN(CCOc3cc(C)ccc3C(C)C)CC2)c1` [B.1387] had an ED50 of 6.78 mg/kg.

Regarding `Cc1ccc(C(C)C)c(OCCN2CCN(c3c(C)cccc3C)CC2)c1` [B.1393], the ED50 is > 200 mg/kg.

Staying with this data set, now noted: oral.
Turning to `COc1ccc(OC)c(N2CCN(CCOc3cc(C)ccc3C(C)C)CC2)c1` [B.1387], the “protection against the toxicity of norepinephrine (in words)” value is “excellent protection against the toxicity of norepinephrine”.

The next data set deals with T1, postsynaptic alpha-adrenergic receptors (Rattus norvegicus, UniProt P43140).
T1 construct: contraction of the isolated vas deferens; from tissue; host or cells: isolated rat vas deferens
T1 sequence (P43140 1-466): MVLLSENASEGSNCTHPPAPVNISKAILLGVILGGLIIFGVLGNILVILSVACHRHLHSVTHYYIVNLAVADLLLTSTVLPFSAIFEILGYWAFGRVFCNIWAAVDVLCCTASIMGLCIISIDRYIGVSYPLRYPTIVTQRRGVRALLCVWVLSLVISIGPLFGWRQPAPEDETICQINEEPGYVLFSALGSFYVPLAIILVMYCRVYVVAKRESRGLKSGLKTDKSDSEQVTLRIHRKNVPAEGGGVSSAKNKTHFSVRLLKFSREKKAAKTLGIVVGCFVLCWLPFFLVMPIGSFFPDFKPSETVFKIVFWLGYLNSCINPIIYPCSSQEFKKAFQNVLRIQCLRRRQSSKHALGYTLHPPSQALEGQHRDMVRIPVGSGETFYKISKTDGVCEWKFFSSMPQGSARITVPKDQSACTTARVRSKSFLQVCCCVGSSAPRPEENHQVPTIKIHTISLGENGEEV
Briefly: Alpha-blocking activity on isolated rat vas deferens. It counts as cell-based. The note with it: norepinephrine contraction, -log of product concentration at which norepinephrine concentration must be doubled, read-out: pA2 (converted). The source says:
2. Determination of the Alpha-Blocking Activity on Isolated Rat Vas Deferens
Stimulation of the postsynaptic alpha-adrenergic receptors by norepinephrine causes contraction of the isolated vas deferens. The aim is to find the product concentration in whose presence the norepinephrine concentration must be doubled in order to obtain the same effect as in the absence of said product.
The logarithm of this concentration, with its sign changed, represents the pA2 value of the product.
On to `Cc1ccc(C(C)C)c(OCCN2CCN(c3ccc(Cl)cc3)CC2)c1` [B.1191, 3-[2-(4-p-chlorophenylpiperazin-1-yl)ethoxy]-p-cymene dihydrochloride], for which the Kb is 331 nM.

For the molecule `CCOc1cccc(N2CCN(CCOc3cc(C)ccc3C(C)C)CC2)c1` [B.1204, 3-[2-(4-m-ethoxyphenylpiperazin-1-yl)ethoxy]-p-cymene hydrochlroide], the Kb is 1000 nM.

For the molecule `COc1cccc(N2CCN(CCOc3cc(C)ccc3C(C)C)CC2)c1` [B.1206, 3-[2-(4-m-methoxyphenylpiperazin-1-yl)ethoxy]-p-cymene hydrochloride], the Kb was 170 nM.

Turning to `Cc1ccc(C(C)C)c(OCCN2CCN(c3ccccc3C)CC2)c1` [B.1213, 3-[2-(4-o-methylphenylpiperazin-1-yl)-ethoxy]-p-cymene hydrochloride], the Kb was 1100 nM.

In the case of `Cc1ccc(C(C)C)c(OCCN2CCN(c3cc(Cl)ccc3C)CC2)c1` [B.1256], the Kb was > 1000 nM.

As to `Cc1ccc(C(C)C)c(OCCN2CCN(c3ccccc3F)CC2)c1` [B.1261, 3-[2-(4-o-fluorophenylpiperazin-1-yl)ethoxy]-p-cymene hydrochloride], the Kb was 363 nM.

As to `Cc1ccc(C(C)C)c(OCCN2CCN(c3c(C)cccc3Cl)CC2)c1` [B.1326], the Kb is > 1000 nM.

Consider `CCCCOc1ccccc1N1CCN(CCOc2cc(C)ccc2C(C)C)CC1` [B.1340], for which the Kb is > 1000 nM.

For the molecule `Cc1ccc(C(C)C)c(OCCN2CCN(c3cccc(O)c3)CC2)c1` [B.1343], the Kb is 832 nM.

As to `Cc1ccc(N2CCN(CCOc3cc(C)ccc3C(C)C)CC2)c(Cl)c1` [B.1353], the Kb was > 1000 nM.

As for `CCCCCOc1ccccc1N1CCN(CCOc2cc(C)ccc2C(C)C)CC1` [B.1356], the Kb is > 1000 nM.

For the molecule `COc1ccc(OC)c(N2CCN(CCOc3cc(C)ccc3C(C)C)CC2)c1` [B.1387], the Kb is 355 nM.

`Cc1ccc(C(C)C)c(OCCN2CCN(c3c(C)cccc3C)CC2)c1` [B.1393]: the Kb was > 1000 nM.

By LD50 is commonly meant the dose at which mortality reaches 50%. High values mean a less toxic substance, low ones a more toxic substance. As a reminder, the ED50 is the dose at which the effect has come halfway, by size or by number of responders. A high value points to weaker potency.
